Laboratory results taken from patent EP4635500A1, “THERAPEUTIC AGENT FOR BACTERIAL INFECTION” (Sumitomo Pharma Co., Ltd., priority 2022, dated 2024).
≈ marks a conversion by molar mass, not a printed value. Like-named read-outs stand apart in the source and are kept apart here.

Legend:
Bacteroides spp. = assay: MIC, agar dilution, anaerobic bacteria (Example 9, Tables 17, 22); assay type: cell-based; settings: for MIC: (n)=Compound A µg/mL, 0=Compound A alone antibacterial
Gram-positive bacteria = assay: MIC, agar dilution, anaerobic bacteria (Example 9, Tables 21, 26); assay type: cell-based

Q: How did the MICrange (Bacteroides spp.; Bacteroides spp.) turn out when `Cc1ncc([N+](=O)[O-])n1CCO` [Metronidazole] was run?
A: ≤0.12 to 2 µg/mL

Q: And the MIC50 (Bacteroides spp.; Bacteroides spp., read-out: MIC50)?
A: 1 µg/mL (≈ 5.84 µM)

Q: What about the MIC90 (Bacteroides spp.; Bacteroides spp., read-out: MIC90) of the same compound?
A: 1 µg/mL (≈ 5.84 µM)

Q: What about the MIC (Bacteroides spp.; Bacteroides, KUB No. 2982 Bacteroidesfragilis) of the same compound?
A: 1 µg/mL (≈ 5.84 µM)

Q: And the MIC (Bacteroides spp.; Bacteroides, KUB No. 6464 Bacteroides vulgarus)?
A: 0.5 µg/mL (≈ 2.92 µM)

Q: What about the MIC (Bacteroides spp.; Bacteroides, KUB No. 6480 Bacteroides thetaioraomicron) of the same compound?
A: 1 µg/mL (≈ 5.84 µM)

Q: What about the MIC (Bacteroides spp.; Bacteroides, KUB No. 6487 Bacteroides thetaiotamicron) of the same compound?
A: 0.25 µg/mL (≈ 1.46 µM)

Q: And the MIC (Bacteroides spp.; KUB No. 2977 Bacteroides thetaiotaomicron ATCC 29741)?
A: 2 µg/mL (≈ 11.7 µM)

Q: What about the MIC (Bacteroides spp.; KUB No. 2983 Bacteroides fragilis) of the same compound?
A: 0.25 µg/mL (≈ 1.46 µM)

Q: And the MIC (Bacteroides spp.; KUB No. 2984 Bacteroides thetaiotaomicron)?
A: 1 µg/mL (≈ 5.84 µM)

Q: What about the MIC (Bacteroides spp.; KUB No. 3003 Bacteroides fragilis ATCC 25285) of the same compound?
A: 0.5 µg/mL (≈ 2.92 µM)

Q: And the MIC (Bacteroides spp.; KUB No. 3009 Bacteroides ovatus)?
A: 1 µg/mL (≈ 5.84 µM)

Q: What about the MIC (Bacteroides spp.; KUB No. 6458 Bacteroides fragilis) of the same compound?
A: 0.5 µg/mL (≈ 2.92 µM)

Q: And the MIC (Bacteroides spp.; KUB No. 6459 Bacteroides stercoris)?
A: 1 µg/mL (≈ 5.84 µM)

Q: What about the MIC (Bacteroides spp.; KUB No. 6460 Bacteroides thetaiotaomicron) of the same compound?
A: 2 µg/mL (≈ 11.7 µM)

Q: What about the MIC (Bacteroides spp.; KUB No. 6461 Bacteroides fragilis) of the same compound?
A: 0.5 µg/mL (≈ 2.92 µM)

Q: What about the MIC (Bacteroides spp.; KUB No. 6463 Bacteroides fragilis) of the same compound?
A: 0.5 µg/mL (≈ 2.92 µM)

Q: And the MIC (Bacteroides spp.; KUB No. 6465 Bacteroides thetaiotaomicron)?
A: 2 µg/mL (≈ 11.7 µM)

Q: And the MIC (Bacteroides spp.; KUB No. 6466 Bacteroides fragilis)?
A: 1 µg/mL (≈ 5.84 µM)

Q: What about the MIC (Bacteroides spp.; KUB No. 6467 Bacteroides fragilis) of the same compound?
A: 0.5 µg/mL (≈ 2.92 µM)

Q: What about the MIC (Bacteroides spp.; KUB No. 6468 Bacteroides fragilis) of the same compound?
A: 1 µg/mL (≈ 5.84 µM)

Q: And the MIC (Bacteroides spp.; KUB No. 6469 Bacteroides fragilis)?
A: 1 µg/mL (≈ 5.84 µM)

Q: What about the MIC (Bacteroides spp.; KUB No. 6470 Bacteroides fragilis) of the same compound?
A: 2 µg/mL (≈ 11.7 µM)

Q: And the MIC (Bacteroides spp.; KUB No. 6471 Bacteroides fragilis)?
A: 1 µg/mL (≈ 5.84 µM)

Q: And the MIC (Bacteroides spp.; KUB No. 6472 Bacteroides stercoris)?
A: 0.5 µg/mL (≈ 2.92 µM)

Q: And the MIC (Bacteroides spp.; KUB No. 6473 Bacteroides fragilis)?
A: 1 µg/mL (≈ 5.84 µM)

Q: And the MIC (Bacteroides spp.; KUB No. 6474 Bacteroides fragilis)?
A: 0.5 µg/mL (≈ 2.92 µM)

Q: And the MIC (Bacteroides spp.; KUB No. 6475 Bacteroides thetaiotaomicron)?
A: 1 µg/mL (≈ 5.84 µM)

Q: What about the MIC (Bacteroides spp.; KUB No. 6476 Bacteroides vulgatus) of the same compound?
A: 1 µg/mL (≈ 5.84 µM)

Q: And the MIC (Bacteroides spp.; KUB No. 6477 Bacteroides fragilis)?
A: ≤ 0.12 µg/mL

Q: And the MIC (Bacteroides spp.; KUB No. 6478 Bacteroides fragilis)?
A: 0.25 µg/mL (≈ 1.46 µM)

Q: What about the MIC (Bacteroides spp.; KUB No. 6481 Bacteroides fragilis) of the same compound?
A: 1 µg/mL (≈ 5.84 µM)

Q: And the MIC (Bacteroides spp.; KUB No. 6483 Bacteroides fragilis)?
A: 0.25 µg/mL (≈ 1.46 µM)

Q: What about the MIC (Bacteroides spp.; KUB No. 6484 Bacteroides fragilis) of the same compound?
A: 0.5 µg/mL (≈ 2.92 µM)

Q: And the MIC (Bacteroides spp.; KUB No. 6485 Bacteroides vulgatus)?
A: 0.25 µg/mL (≈ 1.46 µM)

Q: What about the MIC (Bacteroides spp.; KUB No. 6486 Bacteroides fragilis) of the same compound?
A: 1 µg/mL (≈ 5.84 µM)

Q: What about the MIC (Bacteroides spp.; KUB No. 6490 Bacteroides fragilis) of the same compound?
A: 0.5 µg/mL (≈ 2.92 µM)

Q: What about the MIC (Bacteroides spp.; KUB No. 6491 Bacteroides fragilis) of the same compound?
A: 1 µg/mL (≈ 5.84 µM)

Q: What about the MIC (Bacteroides spp.; KUB No. 6493 Bacteroides thetaiotaomicron) of the same compound?
A: 1 µg/mL (≈ 5.84 µM)

Q: And the MIC (Bacteroides spp.; KUB No. 6496 Bacteroides fragilis)?
A: 1 µg/mL (≈ 5.84 µM)

Q: And the MIC (Bacteroides spp.; KUB No. 6497 Bacteroides vulgatus)?
A: 1 µg/mL (≈ 5.84 µM)

Q: And the MIC (Bacteroides spp.; KUB No. 6502 Bacteroides fragilis)?
A: 0.25 µg/mL (≈ 1.46 µM)

Q: What about the MIC (Bacteroides spp.; KUB No. 6503 Bacteroides thetaiotaomicron) of the same compound?
A: 1 µg/mL (≈ 5.84 µM)

Q: And the MIC (Bacteroides spp.; KUB No. 6504 Bacteroides caccae)?
A: 1 µg/mL (≈ 5.84 µM)

Q: What about the MIC (Bacteroides spp.; KUB No. 6506 Bacteroides thetaiotaomicron) of the same compound?
A: 1 µg/mL (≈ 5.84 µM)

Q: And the MIC (Bacteroides spp.; KUB No. 6509 Bacteroides fragilis)?
A: ≤ 0.12 µg/mL

Q: What about the MIC (Bacteroides spp.; KUB No. 6511 Bacteroides salyersiae) of the same compound?
A: 1 µg/mL (≈ 5.84 µM)

Q: What about the MIC (Bacteroides spp.; KUB No. 6513 Bacteroides fragilis) of the same compound?
A: 0.5 µg/mL (≈ 2.92 µM)

Q: And the MIC (Bacteroides spp.; KUB No. 6515 Bacteroides thetaiotaomicron)?
A: 1 µg/mL (≈ 5.84 µM)

Q: What about the MIC (Bacteroides spp.; KUB No. 6518 Bacteroides fragilis) of the same compound?
A: 0.5 µg/mL (≈ 2.92 µM)

Q: What about the MIC (Bacteroides spp.; KUB No. 6522 Bacteroides fragilis) of the same compound?
A: 1 µg/mL (≈ 5.84 µM)

Q: What about the MIC (Bacteroides spp.; KUB No. 6523 Bacteroides fragilis) of the same compound?
A: 1 µg/mL (≈ 5.84 µM)

Q: And the MIC (Bacteroides spp.; KUB No. 6525 Bacteroides fragilis)?
A: 1 µg/mL (≈ 5.84 µM)

Q: What about the MIC (Bacteroides spp.; KUB No. 6527 Bacteroides thetaiotaomicron) of the same compound?
A: 1 µg/mL (≈ 5.84 µM)

Q: What about the MIC (Bacteroides spp.; KUB No. 6530 Bacteroides thetaiotaomicron) of the same compound?
A: 1 µg/mL (≈ 5.84 µM)

Q: And the MIC (Bacteroides spp.; KUB No. 6535 Bacteroides fragilis)?
A: 0.5 µg/mL (≈ 2.92 µM)

Q: And the MIC (Bacteroides spp.; KUB No. 6544 Bacteroides vulgatus)?
A: 1 µg/mL (≈ 5.84 µM)

Q: What about the MIC (Bacteroides spp.; KUB No. 6545 Bacteroides thetaiotaomicron) of the same compound?
A: 0.5 µg/mL (≈ 2.92 µM)

Q: And the MIC (Bacteroides spp.; KUB No. 6556 Bacteroides vulgatus)?
A: 0.5 µg/mL (≈ 2.92 µM)

Q: And the MIC (Gram-positive bacteria; ATCC43255, KUB No. 3518 Clostridioides difficile ATCC 43255, read-out: MIC)?
A: 0.5 µg/mL (≈ 2.92 µM)

Q: What about the MIC (Gram-positive bacteria; ATCC700057, KUB No. 2978 Clostridioides difficile ATCC 700057, read-out: MIC) of the same compound?
A: 0.5 µg/mL (≈ 2.92 µM)

Q: And the MIC (Gram-positive bacteria; ATCCBAA1803, KUB No. 3511 Clostridioides difficile ATCC BAA-1803, read-out: MIC)?
A: 1 µg/mL (≈ 5.84 µM)

Q: And the MIC (Gram-positive bacteria; ATCCBAA1870, KUB No. 3385 Clostridioides difficile ATCC BAA-1870, read-out: MIC)?
A: 0.5 µg/mL (≈ 2.92 µM)

Q: What about the MIC (Gram-positive bacteria; Cutibacterium acnes, ATCC11827) of the same compound?
A: > 64 µg/mL

Q: What about the MIC (Gram-positive bacteria; Finegoldia magna, ATCC29328) of the same compound?
A: 1 µg/mL (≈ 5.84 µM)

Q: What about the MIC50 (Gram-positive bacteria; Gram-positive bacteria, read-out: MIC50) of the same compound?
A: 0.5 µg/mL (≈ 2.92 µM)

Q: And the MIC90 (Gram-positive bacteria; Gram-positive bacteria, read-out: MIC90)?
A: 2 µg/mL (≈ 11.7 µM)

Q: And the MIC (Gram-positive bacteria; KUB No. 3013 Bulleidia extructa, read-out: MIC)?
A: 2 µg/mL (≈ 11.7 µM)

Q: What about the MIC (Gram-positive bacteria; KUB No. 3014 Atropobium rimae, read-out: MIC) of the same compound?
A: 2 µg/mL (≈ 11.7 µM)

Q: What about the MIC (Gram-positive bacteria; Olsenella uli) of the same compound?
A: 2 µg/mL (≈ 11.7 µM)

Q: And the MIC (Gram-positive bacteria; Peptoniphilus asaccharolyticus, ATCC14963)?
A: 0.5 µg/mL (≈ 2.92 µM)

Q: What about the MIC (Gram-positive bacteria; Peptoniphilus indolicus) of the same compound?
A: 0.25 µg/mL (≈ 1.46 µM)

Q: What about the MIC (Gram-positive bacteria; Peptostreptococcus anaerobius) of the same compound?
A: 0.5 µg/mL (≈ 2.92 µM)

Q: What about the MIC (Gram-positive bacteria; Schaalia odontolytica, ATCC17929, KUB No. 3488 Actinomyces odontolyticus ATCC 17929, read-out: MIC) of the same compound?
A: 32 µg/mL (≈ 187 µM)
